Here are results for seven compounds from patent US20130209522A1, “Drug Release from a Polymer-Controlled Local Antibiotic Delivery System Using a Degradable Bone Graft” (UNIVERSITY OF UTAH RESEARCH FOUNDATION, priority 2012, published 2013).

Structures can show the parent of a compound that is named as a salt. Where two headings read alike, the source gives them in different places.

The nature of data set [1]: Tobramycin thermostability during PCL formulation (bioactivity). Format: physicochemical. Particulars: after inclusion in a PCL formulation; data not shown.
For data set [2] the following is noted: cited from earlier work; for Solubility in organic solvents / Water solubility / pH induced in the surrounding: Table 3, for reference; for Solubility in organic solvents: cell wraps over several lines, first line given; for Solubility: ranking of solvents, Table 2.
In data set [3] the test system is Staphylococcus aureus (ATCC 25923). The data set can be described thus: Zone of inhibition of antibiotic release samples. It counts as cell-based. Particulars: released from PCL-coated allograft bone. On the procedure: Zone of Inhibition. Immediately following the kinetics assay, filter paper disks (diameter=6 mm) were placed in the antibiotic release samples in the 96-well plate and dried overnight. Staphylococcus aureus (ATCC 25923 from American Type Culture Collection, Manassas, Va., USA) streaked Brain-Heart Infusion (BHI, BD cat#237500) agar plates were prepared for zone of inhibition experiments using pooled isolated colonies from blood agar plates diluted to a standard concentration (0.5 McFarland units). Subsequently, each drug-containing disk was placed on the bacterial-streaked agar […]. Plates were incubated for 18 hours at 37° C. Electronic calipers were used to measure the cleared (no bacterial growth) diameter surrounding each disk (zone of inhibition). If no measurable zone was present the diameter was recorded as zero.

As to `NC[C@H]1O[C@H](O[C@H]2[C@H](O)[C@@H](O[C@H]3O[C@H](CO)[C@@H](O)[C@H](N)[C@H]3O)[C@H](N)C[C@@H]2N)[C@H](N)C[C@@H]1O` [Tobramycin], in data set [1], the thermostability during formulation result is “no loss in bioactivity”. In data set [2], the “Solubility in organic solvents” value was “EtOH”, the Water solubility entry is recorded as “(538 mg/ml” and the “pH induced in the surrounding” value is “Low”. In addition, in data set [2] (in words), the solubility in alcohols result is “marginally soluble” and the solubility in water entry is “very water-soluble”. The solubility in water entry in data set [2] (in words, listed as tobramycin) is recorded as “highly soluble”.

Consider `CN[C@H](CC(C)C)C(=O)N[C@H]1C(=O)N[C@@H](CC(N)=O)C(=O)N[C@H]2C(=O)N[C@H]3C(=O)N[C@H](C(=O)N[C@H](C(=O)O)c4cc(O)cc(O)c4-c4cc3ccc4O)[C@H](O)c3ccc(c(Cl)c3)Oc3cc2cc(c3O[C@@H]2O[C@H](CO)[C@@H](O)[C@H](O)[C@H]2O[C@H]2C[C@](C)(N)[C@H](O)[C@H](C)O2)Oc2ccc(cc2Cl)[C@H]1O` [Vancomycin HCL], for which the Solubility result in data set [2] is listed as “water >>> chloroform & ethanol”.

For the compound `CN[C@H](CC(C)C)C(=O)N[C@H]1C(=O)N[C@@H](CC(N)=O)C(=O)N[C@H]2C(=O)N[C@H]3C(=O)N[C@H](C(=O)N[C@H](C(=O)O)c4cc(O)cc(O)c4-c4cc3ccc4O)[C@H](O)c3ccc(c(Cl)c3)Oc3cc2cc(c3O[C@@H]2O[C@H](CO)[C@@H](O)[C@H](O)[C@H]2O[C@H]2C[C@](C)(N)[C@H](O)[C@H](C)O2)Oc2ccc(cc2Cl)[C@H]1O` [Vancomycin], the “Solubility in organic solvents” value in data set [2] is given as “DMSO”.

On to Tobramycin Sulfate, for which the Solubility result in data set [2] is “water >>> acetone >> ethanol”.

As for `Cc1onc(-c2ccccc2)c1C(=O)N[C@@H]1C(=O)N2[C@@H]1SC(C)(C)[C@@H]2C(=O)O` [Oxacillin], in data set [2], the “Solubility in organic solvents” value is listed as “High: MeOH,”, the Water solubility entry is listed as “(13.9 mg/ml” and the “pH induced in the surrounding” value is “High”.

With `CO[C@H]1/C=C/O[C@@]2(C)Oc3c(C)c(O)c4c(O)c(c(/C=N/N5CCN(C)CC5)c(O)c4c3C2=O)NC(=O)/C(C)=C\C=C\[C@H](C)[C@H](O)[C@@H](C)[C@@H](O)[C@@H](C)[C@H](OC(C)=O)[C@@H]1C` [Rifampin], the “zones of inhibition compared to the antibiotic salts (vancomycin and oxacillin)” value in data set [3] was “enhanced zones of inhibition”. Besides, the “Solubility in organic solvents” value in data set [2] is given as “DMSO, CHCl3,”.

Consider `O=C(O)c1cn(C2CC2)c2cc(N3CCNCC3)c(F)cc2c1=O` [Ciprofloxacin], for which the “zones of inhibition compared to the antibiotic salts (vancomycin and oxacillin)” value in data set [3] was “enhanced zones of inhibition”.
